“Also recorded” adds a separate entry of the source.
Legend:
Lck SH2 domain = biological target: T1, Lck SH2 domain (Homo sapiens, UniProt P06239); assay: solid phase EIA of Lck SH2 domain binding to CD3 ζ chain ITAM peptide; conditions: screening concentration of 100 μM
T1 construct: GST
Description: Compounds have been identified that inhibited Lck SH2 domain binding to the CD3 ζ chain ITAM peptide using a combination of CADD and biological assays using a solid phase EIA assay developed in our laboratory.
(§1) Lck kinase is a member of Src family kinases including Fyn, Lyn, and Hck that have SH2 domains sharing significant sequence homologies at βD5, βE4, EF1 and βG4 sites where these amino acids form the pY+3 binding pocket. Accordingly, it was important to test inhibition specificities of compounds against SH2 domains of these Src kinases and other signal transduction molecules involved in TCR proximal signaling. All 42 compounds identified in the above assay were subjected to specificity screening using a solid phase EIA assay using 7 different GST-SH2 domains (Lck, Fyn, Lyn, Hck, Src, She and Grb2).
(§2) All the compounds that had >40% inhibitory effect in the cellular assays were tested in the solid phase specificity screening assay and three compounds, 72, 87 and 241 were identified to be specific to Lck. Due to the fact that these compounds were specific to Lck SH2 domain, in vitro and in vivo assays described below were conducted using these 3 compounds.

[1] = system: GST-SH2 domains (Fyn, Lyn, Hck, Src, She and Grb2); assay: solid phase EIA specificity screening with other GST-SH2 domains; type: binding; conditions: screening concentration of 100 μM
Description: as §1, §2

[2] = system: Mtb-induced adjuvant arthritis; assay: Mtb-induced adjuvant arthritis (AA) in Lewis rats; type: in vivo, Lewis rat
Procedure: FIG. 4A is a line graph showing the effect of SMILS in a preventive treatment regimen. […] Mtb was injected on day 0. ▭—Untreated group, ◯—SMILS treated group.
FIG. 4B is a line graph showing the effect of SMILS in therapeutic-1 treatment regimen. […] Mtb was injected on day 0. ⋄—Untreated group, ◯—SMILS treated group (3 mg/kg body weight), ●—SMILS (1 mg/kg body weight) treatment group.
FIG. 4C is a line graph showing the effects of SMILS in therapeutic-2 treatment regimen. […] Mtb was injected on day 0. ⋄—Untreated group, ●—SMILS (3 mg/kg body weight) treatment group.
Pilot experiments using Lewis rats were carried out to assess the effect of SMILS on Mtb-induced AA. The initial experiments described here were carried out using compound 241. Experiments were carried out to test the efficacy of SMILS (3 mg/kg body weight injected i.p.) in three treatment regimens: i.e., preventive: (SMILS injected at −3, −2, −1, 0 days before Mtb injection); therapeutic 1: at the time of AA induction (SMILS injected at 0, 1, 2, 3, 4 days after Mtb injection); and therapeutic 2: at the time of clinical symptom appearance (SMILS injected at 10, 11, 12, 13 days after Mtb injection).
In addition to the visual scoring of the joint swelling, histological examinations of joints from all 4 paws collected at the peak of the disease were carried out.

T1 sequence (P06239 127-224 limits assumed): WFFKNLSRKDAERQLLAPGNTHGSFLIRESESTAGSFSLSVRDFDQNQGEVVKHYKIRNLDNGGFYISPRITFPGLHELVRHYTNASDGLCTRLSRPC

Row | SMILES | specificity towards Lck SH2 domain (Lck SH2 domain) | inhibitory activity against the other SH2 domains [1] | joint swelling in Mtb-induced AA, therapeutic 1 regimen ([2]; 3 mg/kg i.p. on days 0, 1, 2, 3, 4 after Mtb, Lewis rats) | joint swelling in Mtb-induced AA, therapeutic 2 regimen ([2]; 3 mg/kg i.p. on days 10, 11, 12, 13 after Mtb, Lewis rats) | joint swelling in Mtb-induced AA, preventive regimen ([2]; 3 mg/kg i.p. on days -3, -2, -1, 0, Lewis rats) | histological examination of joints ([2]; paws collected at the peak of the disease, AA rats)
1 | O=C(O)COc1ccccc1/C=N/NC(=O)c1cc(Cl)ccc1O [Compound 72] | showed specificities towards Lck SH2 domain | little or no inhibitory activity |  |  |  | 
2 | O=C(NCCSc1ccccc1)c1cncc(Br)c1 [Compound 241] | showed specificities towards Lck SH2 domain | little or no inhibitory activity | significantly reduced the joint swellings in all rats | significantly reduced the joint swellings in all rats | delayed the onset of joint swelling and reduced the severity of joint swellings | absence of damage to the cartilage and inflammatory cells; also recorded: No infiltration of inflammatory cells is observed in the joint space
